ChEMBL document CHEMBL3045581, “Preliminary evaluation of rat kidney aldose reductase inhibitory activity of 2-phenylindole derivatives: affiliation to antioxidant activity” (Med Chem Res, 2007)
The source made the active and inactive calls. The calls are words filed in the database; no cut-off is given here.

Legend:
Liver [1] = assay: Antioxidant activity in Rattus norvegicus (rat) liver assessed as DPPH free radical scavenging activity at 10^-3 to 10^-4 M; format: functional, tissue-based
[2] = target: Aldo-keto reductase family 1 member B1 (Rattus norvegicus) (UniProt P07943); assay: Inhibition of Rattus norvegicus albino (rat) kidney aldose reductase using D-L-glyceraldehyde as substrate assessed as decrease in NADPH level measured for 5 min by spectrophotometric analysis
Liver [3] = assay: Antioxidant activity in Rattus norvegicus (rat) liver assessed as superoxide anion scavenging activity at 10^-3 to 10^-4 M; format: functional, tissue-based

Structure (SMILES): Nc1ccc(-c2[nH]c3ccccc3c2C=O)cc1
- Activity (Liver [1]): inactive
- inhibition [2]: inactive
- Activity (Liver [3]): inactive

Structure (SMILES): Nc1ccc(-c2cc3ccccc3[nH]2)cc1
- Activity (Liver [1]): Active
- inhibition [2]: 11%
- Activity (Liver [3]): Active

Structure (SMILES): O=Cc1c(-c2ccc(Cl)cc2)[nH]c2ccccc12
- Activity (Liver [1]): inactive
- inhibition [2]: inactive
- Activity (Liver [3]): inactive

Structure (SMILES): Fc1ccc(-c2cc3ccccc3[nH]2)cc1
- Activity (Liver [1]): inactive
- inhibition [2]: inactive
- Activity (Liver [3]): Active

Structure (SMILES): Clc1ccc(-c2cc3ccccc3[nH]2)cc1
- Activity (Liver [1]): inactive
- inhibition [2]: inactive
- Activity (Liver [3]): Active

Structure (SMILES): O=Cc1c(-c2ccc(F)cc2)[nH]c2ccccc12
- Activity (Liver [1]): inactive
- inhibition [2]: inactive
- Activity (Liver [3]): inactive

Structure (SMILES): O=[N+]([O-])c1cc([N+](=O)[O-])c2[nH]c(-c3ccccc3)cc2c1
- Activity (Liver [1]): Active
- inhibition [2]: inactive
- Activity (Liver [3]): Active

Structure (SMILES): O=[N+]([O-])c1cc(-c2cc3ccccc3[nH]2)ccc1Cl
- Activity (Liver [1]): Active
- inhibition [2]: 5.29%
- Activity (Liver [3]): Active

Structure (SMILES): Clc1ccc(-c2cc3ccccc3[nH]2)cc1Cl
- Activity (Liver [1]): inactive
- inhibition [2]: inactive
- Activity (Liver [3]): Active

Structure (SMILES): c1ccc(-c2cc3ccccc3[nH]2)cc1
- Activity (Liver [1]): inactive
- inhibition [2]: inactive
- Activity (Liver [3]): inactive

Structure (SMILES): O=Cc1c(-c2ccc(Cl)c([N+](=O)[O-])c2)[nH]c2ccccc12
- Activity (Liver [1]): inactive
- inhibition [2]: inactive
- Activity (Liver [3]): inactive

Structure (SMILES): O=Cc1c(-c2ccccc2)[nH]c2ccccc12
- Activity (Liver [1]): inactive
- inhibition [2]: 7.64%
- Activity (Liver [3]): inactive
